Data taken from patent US20120100186A1, “NANOPARTICULATE-BASED CONTRACEPTIVE/ANTI-HIV COMPOSITION AND METHODS” (Washington University, priority 2010, published 2012).

How the values were obtained:
sperm = test: Sperm motility and viability (computer assisted sperm analysis); assay type: cell-based, Human; settings: 30 minutes at 37° C., 10 million sperm per mL; FIGS. 5A-5D
Method: Human semen samples were obtained from the Washington University in vitro fertilization laboratory and stored at 37° C. until use. Semen was diluted in EmbryoMax® Human Tubal Fluid (HTF) (Millipore) and free melittin or melittin-coupled nanoparticles in HTF was added to achieve a final sperm concentration of 10 million sperm per mL. (For nanoparticles, samples were pipetted up and down 3 times every 10 minutes to keep the nanoparticles suspended.) Samples were incubated in 96-well plates for 30 minutes at 37° C. with shaking at 150 rpm to prevent sperm from settling. Afterwards, Viadent® stain (Hoechst 33258, Hamilton Thorne) was added to achieve a final stain concentration of 10 μg/mL and samples were incubated for an additional 5 minutes. Sperm motility and viability were determined using an IVOS® Computer Assisted Sperm Analyzer (Hamilton Thorne).

[1] = system: Immortalized vaginal epithelial cells (VK2/E6E7); test: Vaginal epithelium toxicity (MTT viability); assay type: cell-based; settings: concentrations of melittin as low as 1 μM, 12 hours at 37° C., FIG. 1A
Method: For toxicity studies, 7500 cells were added to each well of a 96-well plate and allowed to attach for 24 hours. Melittin or melittin coated PFC-NP were then added and incubated with the cells for 12 hours at 37° C. with shaking at 500 rpm. Cells were washed once with media and incubated with MTT reagent for 4 hours. The colored product was solubilized in DMSO and absorbance at 570 nm was measured using a plate reader.
In more detail, cells were detached from a T75 flask by rinsing with 2-3 mL of trypsin, followed by adding 5 mL trypsin and incubating at 37° C. for 15 minutes. Five mL DMEM-FBS is then added to stop the trypsin, and the mixture is centrifuged at 900 rpm for 5 minutes, supernatant is removed and the cells are resuspended in 5 mL of Keratinocyte-Serum Free Media (Invitrogen™). The cells are diluted to approximately 75,000 cells/mL, and 100 μL of the cell suspension is added to each well of a 96-well plate and incubated for 24 hours at 37° C. The media are replaced with 100 μL of media containing the melittin or melittin-loaded nanoparticles at various concentrations and incubated for 12 hours at 37° C. with shaking at 500 rpm. […]
To each well containing 100 μL of media, 20 μL of MTT reagent (5 mg/mL MTT in PBS) were added, and incubated for 4 hours at 37° C. […] Absorbance is read at 570 nm using a plate reader.

`CC[C@H](C)[C@H](NC(=O)CN)C(=O)NCC(=O)N[C@@H](C)C(=O)N[C@H](C(=O)N[C@@H](CC(C)C)C(=O)N[C@@H](CCCCN)C(=O)N[C@H](C(=O)N[C@@H](CC(C)C)C(=O)N[C@H](C(=O)N[C@H](C(=O)NCC(=O)N[C@@H](CC(C)C)C(=O)N1CCC[C@H]1C(=O)N[C@@H](C)C(=O)N[C@@H](CC(C)C)C(=O)N[C@H](C(=O)N[C@@H](CO)C(=O)N[C@@H](Cc1c[nH]c2ccccc12)C(=O)N[C@H](C(=O)N[C@@H](CCCCN)C(=O)N[C@@H](CCCNC(=N)N)C(=O)N[C@@H](CCCCN)C(=O)N[C@@H](CCCNC(=N)N)C(=O)N[C@@H](CCC(N)=O)C(=O)N[C@@H](CCC(N)=O)C(N)=O)[C@@H](C)CC)[C@@H](C)CC)[C@@H](C)O)[C@@H](C)O)C(C)C)C(C)C` [melittin] was tested, and the sperm motility (sperm) was “impeded”, the sperm viability (sperm) was “impeded” and the “viability of vaginal epithelium cells” value [1] was “dramatically decrease”.
